Measurements taken from ChEMBL document CHEMBL5247629, “C-6 fluorinated casuarines as highly potent and selective amyloglucosidase inhibitors: Synthesis and structure-activity relationship study” (Eur J Med Chem, 2022).

Assays:
[1] = target: Alpha-galactosidase (Coffea arabica) (UniProt Q42656); test: Inhibition of coffee bean alpha-galactosidase using p-nitrophenyl glycoside as substrate at 1000 uM by spectrometric method relative to control
[2] = Inhibition of rat intestinal maltase using maltose as substrate at pH 6.8 by colorimetric method; format: tissue-based, Intestine
[3] = target: Alpha-glucosidase (Saccharomyces cerevisiae S288c) (UniProt P53341+P38158+P07265); test: Inhibition of yeast alpha-glucosidase using p-nitrophenyl glycoside as substrate at 1000 uM by spectrometric method relative to control; format: protein assay
[4] = Inhibition of Aspergillus niger amyloglucosidase using p-nitrophenyl glycoside as substrate by spectrometric method
Escherichia coli = test: Inhibition of Escherichia coli beta-glucuronidase using p-nitrophenyl glycoside as substrate at 1000 uM by spectrometric method relative to control
[5] = Inhibition of bovine liver beta-galactosidase using p-nitrophenyl glycoside as substrate by spectrometric method; design: species or system Bos taurus
[6] = Inhibition of almond beta-glucosidase using p-nitrophenyl glycoside as substrate by spectrometric method; design: species or system Prunus dulcis
[7] = target: T1, Alpha-mannosidase (Canavalia ensiformis) (UniProt C0HJB3); test: Inhibition of jack bean alpha-mannosidase using p-nitrophenyl glycoside as substrate at 1000 uM by spectrometric method relative to control
T1 sequence (whole entry): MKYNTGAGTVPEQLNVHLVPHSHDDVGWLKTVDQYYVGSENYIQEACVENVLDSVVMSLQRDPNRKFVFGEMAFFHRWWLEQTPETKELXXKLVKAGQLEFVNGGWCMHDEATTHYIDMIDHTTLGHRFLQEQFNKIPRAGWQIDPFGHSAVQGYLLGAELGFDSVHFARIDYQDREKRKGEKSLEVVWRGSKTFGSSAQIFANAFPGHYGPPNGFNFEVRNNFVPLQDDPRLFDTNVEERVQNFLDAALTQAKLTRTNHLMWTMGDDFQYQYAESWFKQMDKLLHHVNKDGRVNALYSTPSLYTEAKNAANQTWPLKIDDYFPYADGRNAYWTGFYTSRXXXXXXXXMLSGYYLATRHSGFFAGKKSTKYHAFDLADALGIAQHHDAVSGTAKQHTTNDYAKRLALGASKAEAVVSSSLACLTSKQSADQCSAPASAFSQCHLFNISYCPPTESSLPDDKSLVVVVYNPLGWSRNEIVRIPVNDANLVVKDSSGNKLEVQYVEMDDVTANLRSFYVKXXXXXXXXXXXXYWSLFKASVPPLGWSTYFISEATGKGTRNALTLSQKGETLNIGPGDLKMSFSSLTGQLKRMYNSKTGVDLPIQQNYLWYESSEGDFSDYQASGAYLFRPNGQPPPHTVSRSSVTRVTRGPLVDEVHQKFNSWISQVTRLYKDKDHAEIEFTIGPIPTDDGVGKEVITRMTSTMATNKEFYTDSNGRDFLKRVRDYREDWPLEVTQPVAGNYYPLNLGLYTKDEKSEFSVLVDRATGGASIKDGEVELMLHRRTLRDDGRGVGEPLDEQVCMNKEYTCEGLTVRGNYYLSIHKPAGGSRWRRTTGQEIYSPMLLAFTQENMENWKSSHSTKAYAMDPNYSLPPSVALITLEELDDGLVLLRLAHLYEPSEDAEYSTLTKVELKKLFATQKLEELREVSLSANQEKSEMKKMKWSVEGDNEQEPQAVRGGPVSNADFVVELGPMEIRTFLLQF

[8] = Inhibition of bovine liver beta-glucosidase using p-nitrophenyl glycoside as substrate by spectrometric method; format: tissue-based, Bos taurus
Bos taurus [9] = organism: Bos taurus; test: Inhibition of bovine liver beta-glucuronidase using p-nitrophenyl glycoside as substrate at 1000 uM by spectrometric method relative to control; format: tissue-based
Sus scrofa = organism: Sus scrofa; test: Inhibition of porcine kidney alpha/alpha-trehalase using p-nitrophenyl glycoside as substrate at 1000 uM by spectrometric method relative to control; format: tissue-based
Penicillium decumbens = test: Inhibition of Penicillium decumbens alpha-L-rhamnosidase using p-nitrophenyl glycoside as substrate at 1000 uM by spectrometric method relative to control
Helix pomatia = test: Inhibition of snail beta-mannosidase using p-nitrophenyl glycoside as substrate at 1000 uM by spectrometric method relative to control
[10] = Inhibition of rice alpha-glucosidase using p-nitrophenyl glycoside as substrate by spectrometric method; design: species or system Oryza sativa
[11] = target: T2, Tissue alpha-L-fucosidase (Bos taurus) (UniProt Q2KIM0); test: Inhibition of bovine kidney alpha-L-fucosidase using p-nitrophenyl glycoside as substrate at 1000 uM by spectrometric method relative to control; format: tissue-based
T2 sequence (whole entry): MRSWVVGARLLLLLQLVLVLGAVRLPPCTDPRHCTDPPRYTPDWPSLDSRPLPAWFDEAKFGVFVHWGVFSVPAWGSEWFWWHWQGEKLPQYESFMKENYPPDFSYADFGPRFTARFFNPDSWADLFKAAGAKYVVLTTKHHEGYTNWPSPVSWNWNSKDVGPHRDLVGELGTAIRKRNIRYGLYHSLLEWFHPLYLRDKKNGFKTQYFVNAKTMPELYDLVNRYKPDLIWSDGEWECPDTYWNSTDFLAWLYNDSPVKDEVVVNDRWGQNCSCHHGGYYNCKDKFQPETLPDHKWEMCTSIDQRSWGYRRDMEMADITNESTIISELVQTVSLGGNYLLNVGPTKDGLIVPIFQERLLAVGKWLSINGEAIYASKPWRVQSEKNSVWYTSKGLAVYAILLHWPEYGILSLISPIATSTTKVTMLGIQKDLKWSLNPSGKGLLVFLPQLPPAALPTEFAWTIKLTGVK

Bos taurus [12] = organism: Bos taurus; test: Inhibition of bovine liver beta-galactosidase using p-nitrophenyl glycoside as substrate at 1000 uM by spectrometric method relative to control; format: tissue-based
Prunus dulcis = test: Inhibition of almond beta-glucosidase using p-nitrophenyl glycoside as substrate at 1000 uM by spectrometric method relative to control
[13] = Inhibition of porcine kidney alpha/alpha-trehalase using p-nitrophenyl glycoside as substrate by spectrometric method; design: species or system Sus scrofa
Bos taurus [14] = organism: Bos taurus; test: Inhibition of bovine liver beta-glucosidase using p-nitrophenyl glycoside as substrate at 1000 uM by spectrometric method relative to control; format: tissue-based
Oryza sativa = test: Inhibition of rice alpha-glucosidase using p-nitrophenyl glycoside as substrate at 1000 uM by spectrometric method relative to control
Alpha-glucosidase = Alpha-glucosidase (Saccharomyces cerevisiae S288c, UniProt P53341+P38158+P07265); test: Inhibition of yeast alpha-glucosidase using p-nitrophenyl glycoside as substrate by spectrometric method; format: protein assay
[15] = Inhibition of Penicillium decumbens alpha-L-rhamnosidase using p-nitrophenyl glycoside as substrate by spectrometric method
Rattus norvegicus = organism: Rattus norvegicus; test: Inhibition of rat intestinal maltase using maltose as substrate at 1000 uM at pH 6.8 by colorimetric method relative to control; format: tissue-based; conditions: Intestine

Sequence of Alpha-galactosidase (Coffea arabica) (Q42656 16-378 limits assumed): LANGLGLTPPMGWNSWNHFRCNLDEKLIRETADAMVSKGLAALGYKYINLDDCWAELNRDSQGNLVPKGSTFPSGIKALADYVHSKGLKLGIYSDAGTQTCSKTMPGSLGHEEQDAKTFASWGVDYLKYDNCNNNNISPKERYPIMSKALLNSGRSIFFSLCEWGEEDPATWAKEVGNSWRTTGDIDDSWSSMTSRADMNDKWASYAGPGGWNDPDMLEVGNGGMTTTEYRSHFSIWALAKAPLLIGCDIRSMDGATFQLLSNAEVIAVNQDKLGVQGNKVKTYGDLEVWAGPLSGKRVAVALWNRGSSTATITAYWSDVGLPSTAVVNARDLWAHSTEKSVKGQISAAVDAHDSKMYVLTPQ

SMILES | inhibition [1] [%] | IC50 [2] [µM] | inhibition [3] [%] | IC50 [4] [µM] | pIC50 [4] | inhibition (Escherichia coli) [%] | IC50 [6] [µM] | inhibition [7] [%] | inhibition (Bos taurus [9]) [%] | inhibition (Sus scrofa) [%] | inhibition (Penicillium decumbens) [%] | inhibition (Helix pomatia) [%] | IC50 [10] [µM] | inhibition [11] [%] | inhibition (Bos taurus [12]) [%] | inhibition (Prunus dulcis) [%] | IC50 [13] [µM] | inhibition (Bos taurus [14]) [%] | inhibition (Oryza sativa) [%] | also measured
OC[C@@H]1[C@@H](O)[C@H](O)[C@H]2[C@H](O)C(F)(F)CN21 | 1.2 | 167 | 24 | 2.1 | 5.678 | 2.6 | 266 | 6.3 | 15.9 | 5.9 | 5.6 | 0 | 48 | 6.8 | – | – | – | – | – | IC50 [5]: 390 µM; IC50 [8]: 747 µM
OC[C@@H]1[C@@H](O)[C@H](O)[C@H]2C[C@@H](O)CN12 | 4.4 | 72 | 44.1 | 40 | 4.398 | 20.5 | – | 6.3 | 10.8 | – | 6.3 | 3.6 | 234 | 14.8 | 5.9 | 13.6 | 124 | 21.9 | – | –
OC[C@@H]1[C@@H](O)[C@H](O)[C@H]2C[C@H](O)CN12 | 4.5 | 248 | – | 42 | 4.377 | 4.3 | – | 2.2 | 14 | – | 11.2 | 2.4 | – | 0 | 25.4 | 10.5 | 22 | 13.9 | 12.4 | IC50 (Alpha-glucosidase): 466 µM
OC[C@@H]1[C@@H](O)[C@H](O)[C@H]2[C@H](O)[C@H](F)CN21 | 1.7 | – | 12 | 0.14 | 6.854 | 4.3 | 395 | 5.8 | 11.6 | 15.6 | – | 5.9 | – | 7.6 | 47.6 | – | – | 43.8 | 12.7 | IC50 [15]: 488 µM; inhibition (Rattus norvegicus): 33%
